According to patent publication US10047089B2, “Dihydro-6-azaphenalene derivatives for the treatment of CNS, oncological diseases and related disorders” (Collaborative Medicinal Development, LLC, priority 2012, dated 2018):

Assays:
Aß = molecular target: T1, Aß (Homo sapiens, UniProt P05067); test: Bis-ANS fluorescence assay: inhibition (prevention) of zinc induced Aß aggregation; type: biochemical; details: bisANS assay, soluble Aß plus added zinc (FIG. 1, dotted arrow)
T1 construct: Effect of bis-ANS on Aβ1-42 Solubility and Precipitation by Zn^2+
Description: (§1) Measurement of inhibition or reversal of protein aggregation may be carried out using such assays as Bis-ANS Fluorescence as described in, for example, W. T. Chen et al., J. Biol. Chem, 2011, 286 (11), 9646, or thioflavin T assay as disclosed herein. FIG. 1 depicts the measurement of aggregation prevention by added zinc and disaggregation of zinc induced aggregates by AC047 in a bisANS assay. In the presence of soluble Aß, zinc induces aggregation within milliseconds. This aggregation is detected by an increase in bisANS fluorescence. An excess of EDTA serves as a control by binding zinc and preventing aggregation. Both prevention of aggregation and disaggregation can be detected in the assay. […] The compounds described above were evaluated for the inhibition and reversal of protein aggregation as carried out using such assays as Bis-ANS Fluorescence as described in, for example, J. Biol. Chem, 2011, 286 (11), 9646. All compounds prepared above were measured to show EC50 between 0.000001 to 0.10 mM in both assays in the presence of Zinc (II). Aβ1-42 (25 μM) in Tris-HCl buffer (50 mM, pH7.4) was incubated at RT for 10 min in the presence or absence of ZnCl2 (25 μM) and bis-ANS (50 μM). […] A sample of the supernatant was then collected and compared by dot blot for peptide content to the sample of starting material to quantify how much original peptide had been lost due to precipitation.

[1] = molecular target: T2, zinc induced Aß aggregates (Homo sapiens, UniProt P05067); test: Bis-ANS fluorescence assay: reversal (disaggregation) of zinc induced Aß aggregates; type: biochemical; details: bisANS assay, zinc induced aggregates (FIG. 1, solid arrow)
T2 construct: Effect of bis-ANS on Aβ1-42 Solubility and Precipitation by Zn^2+
Description: as §1

T1 sequence (P05067 672-713): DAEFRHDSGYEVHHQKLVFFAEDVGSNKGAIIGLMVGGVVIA
T2 sequence (P05067 672-713): as above

prevention of zinc induced aggregation (Aß): can prevent zinc induced aggregation
elimination of zinc induced Aß aggregates (disaggregation) [1]: can eliminate zinc induced Aß aggregates
SMILES: O=C1c2ccnc3c(O)ccc(c23)C(=O)N1Cc1ccccc1 [AC047, 5-benzyl-9-hydroxy-4H-benzo[de][2,6]naphthyridine-4,6(5H)-dione]
